Read-outs that look alike come from different tables or passages of the source.
How the values were obtained:
[1] = Solubility test in biologically relevant media at 37° C. (HPLC, pH, XRPD of filter cake); format: physicochemical
Experimental: (§1) The instrument used for HIPLC analysis was Agilent TIPLC 1260 series.
The suspension was incubated by shaking on a shaker at 100 rpm at 37° C. 1 mL of the dispersion was taken at 0.5 h, 2 h, and 24 h, and filtered. The filtrate was tested for the solubility by HPLC and for the pH value by a pH meter. The filter cake was characterized for the crystal form by XRPD.

[2] = Pharmacokinetic study in SD rats, intragastric administration; format: in vivo; details: for Cmax: compound A in plasma; for Exposure of compound A relative to administration of the free base: same dose
Experimental: In the experiment, 12 SD rats (purchased from Beijing Vital River Laboratory Animal Technology Co., Ltd.) weighing 180-280 g, half male and female, were used. The animals were randomly divided into four groups of 3 animals each, with female rats in the first and third groups and male rats in the second and fourth groups.
Blood was collected from the orbital venous plexus of rats at various time points (0.167 h, 0.5 h, 1 h, 2 h, 3 h, 4 h, 6 h, 9 h, 12 h, and 24 h) after administration. The concentration of compound A in the plasma was determined.
Data will be analyzed by a non-compartmental model using WinNonlin (version 5.2.1 Pharsight, Mountain View, CA) to obtain PK parameters (parameters selected for different routes of administration, such as C0, Cmax, Tmax, AUC0-last, AUCinf, T1/2, CL, and Vz).

[3] = Hygroscopicity test by dynamic vapor sorption (DVS); format: physicochemical; details: for DVS weight gain (Wt. gain %): 25° C.; for Hygroscopicity: DVS, assessment in words
Experimental: The sample was subjected to water adsorption/desorption tests using a Vsorp (ProUmid GmbH & Co. KG, Germany) water adsorption analyzer. The sample was placed in a tared sample tray, and the change in the sample mass with humidity (0-90% RH) at 25° C. was recorded.

[4] = Solid state stability test (HPLC purity, XRPD); format: physicochemical; details: for Initial purity (Area %): 0 weeks; for Initial purity (Area %) / Purity (Area %): 265 nm; for Physical and chemical stability: 60° C./sealed and 40° C./75% RH open
Experimental: as §1
The samples after being stored 0 days, 1 week, and 2 weeks were taken and each dissolved in a diluent to prepare about 1.0 mg/mL solution, which was tested for chemical stability by HPLC. The solid sample after being stored for 1 week or 2 weeks was tested for physical stability by XRPD.

[5] = SGF medium, 0.5 h, rounded values
[6] = female SD rats, 20 mg/kg in 5% TPGS, 20 mg/kg
[7] = male, SD, rat, plasma, po, 20 mg/kg, male SD rats, 20 mg/kg in 5% TPGS

COc1cccc(CNC(=O)N2CCc3cc(-c4c[nH]nc4N)c(F)cc32)c1 [Fumarate crystal form I]
Crystal form during the solubility test ([1]; 0.5 h, FaSSIF and FeSSIF media): dissociated into the free base crystal form II
Solubility relative to free base crystal form II ([1]; 0.5 h, all three biologically relevant media): about twice
Solubility ([1]; FaSSIF, 37° C., 0.5 h): 12.19 µg/mL
Solubility ([1]; FaSSIF, 37° C., 2 h): 3.57 µg/mL
Solubility ([1]; FaSSIF, 37° C., 24 h): 4.25 µg/mL
pH of filtrate ([1]; FaSSIF, 24 h (0 h: 6.50)): 5.96
Solubility ([1]; FeSSIF, 37° C., 0.5 h): 109.2 µg/mL
Solubility ([1]; FeSSIF, 37° C., 2 h): 75.30 µg/mL
Solubility ([1]; FeSSIF, 37° C., 24 h): 61.39 µg/mL
pH of filtrate ([1]; FeSSIF, 24 h (0 h: 5.00)): 4.90
Solubility [1, 5]: 1900 µg/mL
Solubility ([1]; SGF, 37° C., 0.5 h): 1899 µg/mL
Solubility ([1]; SGF, 37° C., 2 h): 2135 µg/mL
Solubility ([1]; SGF, 37° C., 24 h): 2146 µg/mL
XRPD (crystal form of filter cake) ([1]; SGF, 37° C., 24 h): Trace solid
pH of filtrate ([1]; SGF, 24 h (0 h: 1.20)): 1.29
AUCinf [2, 6]: 33018 ± 1303 ng·h/mL
AUClast [2, 6]: 32884 ± 1318 ng·h/mL
T1/2 [2, 6]: 3.01 ± 0.22 h
Tmax [2, 6]: 0.83 ± 0.17 h
Cmax [2, 6]: 6357 ± 342 ng/mL
Exposure of compound A relative to administration of the free base ([2]; female rats): 2.23 times
Exposure of compound A relative to administration of the free base ([2]; male rats): 1.22 times
AUC(0-inf) [2, 7]: 24100 ± 2900 ng·h/mL
AUC(0-t) [2, 7]: 23900 ± 2930 ng·h/mL
half-life [2, 7]: 3.44 ± 0.29 h
Cmax ([2]; male, SD, rat, plasma, po, 20 mg/kg, male SD rats, 20 mg/kg in 5% TPGS, read-out: Cmax): 3050 ± 198 ng/mL
Tmax ([2]; male, SD, rat, plasma, po, 20 mg/kg, male SD rats, 20 mg/kg in 5% TPGS, read-out: Tmax): 0.67 ± 0.17 h
XRPD pattern / crystal form before and after the DVS test [3]: crystal form remained unchanged
DVS weight gain (Wt. gain %) ([3]; 0.0% RH to 80% RH): <0.2%
DVS weight gain (Wt. gain %) ([3]; 0.0% RH to 80% RH, listed as fumarate crystal form I): < 0.2%
DVS weight gain (Wt. gain %) ([3]; 0.0% RH to 90% RH): <0.2%
DVS weight gain (Wt. gain %) ([3]; 0.0% RH to 90% RH, listed as fumarate crystal form I): < 0.2%
Hygroscopicity [3]: non-hygroscopic
Initial purity (Area %) ([4]; HPLC method of 7-day test): 99.85 Area %
Initial purity (Area %) ([4]; HPLC method of 14-day test): 99.73 Area %
Purity (Area %) ([4]; 1 week, 40° C./75% RH open): 99.85 Area %
Purity (Area %) ([4]; 1 week, 60° C./sealed): 99.86 Area %
Purity (Area %) ([4]; 2 weeks, 40° C./75% RH open): 99.74 Area %
Purity (Area %) ([4]; 2 weeks, 60° C./sealed): 99.75 Area %
Physical and chemical stability ([4]; one week): physically and chemically stable
Physical and chemical stability ([4]; two weeks): physically and chemically stable

COc1cccc(CNC(=O)N2CCc3cc(-c4c[nH]nc4N)c(F)cc32)c1 [Oxalate crystal form I]
Solubility ([1]; FaSSIF, 37° C., 0.5 h): 19.34 µg/mL
Solubility ([1]; FaSSIF, 37° C., 2 h): 12.35 µg/mL
Solubility ([1]; FaSSIF, 37° C., 24 h): 13.41 µg/mL
XRPD (crystal form of filter cake) ([1]; FaSSIF, 37° C., 24 h): partially dissociated into the free base crystal form II
pH of filtrate ([1]; FaSSIF, 24 h (0 h: 6.50)): 5.94
Solubility ([1]; FeSSIF, 37° C., 0.5 h): 96.23 µg/mL
Solubility ([1]; FeSSIF, 37° C., 2 h): 194.1 µg/mL
Solubility ([1]; FeSSIF, 37° C., 24 h): 255.4 µg/mL
XRPD (crystal form of filter cake) ([1]; FeSSIF, 37° C., 24 h): Remains unchanged
XRPD (crystal form of filter cake) ([1]; FeSSIF, 37° C., 24 h, listed as oxalate crystal form I): remained unchanged
pH of filtrate ([1]; FeSSIF, 24 h (0 h: 5.00)): 4.94
Solubility [1, 5]: 70 µg/mL
Solubility ([1]; SGF, 37° C., 0.5 h): 73.75 µg/mL
Solubility ([1]; SGF, 37° C., 2 h): 123.4 µg/mL
Solubility ([1]; SGF, 37° C., 24 h): 139.9 µg/mL
XRPD (crystal form of filter cake) ([1]; SGF, 37° C., 24 h): Remains unchanged
XRPD (crystal form of filter cake) ([1]; SGF, 37° C., 24 h, listed as oxalate crystal form I): remained unchanged
pH of filtrate ([1]; SGF, 24 h (0 h: 1.20)): 1.24
XRPD pattern / crystal form before and after the DVS test [3]: crystal form remained unchanged
DVS weight gain (Wt. gain %) ([3]; 0.0% RH to 80% RH): 2.3%
DVS weight gain (Wt. gain %) ([3]; 0.0% RH to 90% RH): 3.1%
Hygroscopicity [3]: slightly hygroscopic
Initial purity (Area %) ([4]; HPLC method of 7-day test): 96.97 Area %
Purity (Area %) ([4]; 1 week, 40° C./75% RH open): 96.97 Area %
Purity (Area %) ([4]; 1 week, 60° C./sealed): 96.13 Area %
Physical and chemical stability ([4]; one week): degraded
